The text below walks through data of US20100261666A1, “COMPOSITIONS AND METHODS FOR THE TREATMENT OF MYOCARDIAL DYSFUNCTION ASSOCIATED WITH SIRS OR SEPSIS” (THE BOARD OF TRUSTEES OF THE UNIVERSITY OF ILLINOIS, priority 2009, published 2010).

The subject of the experiment is ADA1. As to the kind of experiment: Real time PCR, left ventricular ADA1 mRNA expression. Format: in vivo, rat. Here is the method: Total RNA was isolated from left ventricular tissue using the SV Total Isolation System (Promega Corp., Madison, Wis.). Isolation was performed according to manufacturer instructions and followed by DNAse treatment to eliminate residual genomic DNA contamination. RNA integrity was determined by loading 1.0 μg of total RNA isolate from each sample onto a 1.0% agarose gel and staining with ethidium bromide to visualize the 18 and 28s RNA bands. The amount of RNA recovered was determined using the Ribogreen RNA Quantification Kit (Molecular Probes, Eugene, Oreg.). 1 μg of total RNA was reverse transcribed in a […] using random hexamer primers with enzyme and buffers supplied in the cDNA First Strand Synthesis kit (MRI Fermentas, Hanover, Md.). First strand cDNA was treated with ribonuclease H to remove residual RNA.
Real time PCR (qPCR) was performed to measure RNA transcripts for left ventricular TNF-α and ADA1. Three housekeeping genes were selected as follows to produce an intergroup correction factor for target transcripts: Cyclophilin A, hypoxanthine-guanine physphoribosyltransferase (HPRT), and β-actin. Primers were selected using Primer 3 software (Rosen and Skaletsky, Whitehead Institute for Biomedical Research) with the rat genomic sequences for TNF gene, ADA gene, HPRT gene, β-actin gene, and Cyclophilin gene as templates. BLAST (National Center for Biotechnology Information) searches were used to verify that the selected primers were specific for the designated target.
Specific primer sequences, GenBank accession numbers, Sequence Identifiers, and product sizes are disclosed in Table 5. Primers were used in a standard PCR with the 2× Master Mix PCR reagent (MRI Fermentas) and cDNA from the tissue of interest as a template. The thermocycling profile consisted of one cycle of 95° C. for 10 minutes, followed by 41 cycles of 95° C. for 1 minute, 61° C. for 1 minute, and 72° C. for 1 minute and a final cycle of 72° C. for 10 minutes. Products were run on a 1.0% agarose gel and stained with ethidium bromide to confirm that only one band was amplified and that no primer dimers were present. PCR products were then column-purified (QIAGEN, Valencia, Calif.) and sequenced to confirm target specificity. For real-time PCRs, SYBR PCR Master Mix (Bio-Rad Laboratories, Hercules, Calif.) was used, and thermocycling and fluorescence detection was performed using a Stratagene Mx3000p real-time PCR machine.
Standards were then amplified by real-time PCR, and standard curves were generated using Stratagene Mx3000P software. […]
A housekeeping gene was selected for normalization of the real-time PCR data for the TNF-α and ADA1 transcripts. Three potential gene (mRNA) products were analyzed for this purpose: CYC, β-actin and HPRT.
For orientation: Quantitative PCR measures a nucleic acid by following its amplification.

The structures appear in SMILES notation.

With `Oc1ncnc2[nH]ncc12` [ALO, allopurinol], the “left ventricular ADA1 mRNA expression (copy numbers) compared to CON and LPS hearts” value is, setting by setting: (LPS infusion) “No significant differences”; (vehicle infusion) “No significant differences”.

`OC[C@H]1O[C@@H](n2cnc3c2N=CNCC3O)CC1O` (stereo in doubt) [dCF, 2′-deoxycoformycin]: the “left ventricular ADA1 mRNA expression (copy numbers) compared to CON and LPS hearts” value reads like this: (LPS infusion) “significantly lower”; (vehicle infusion) “significantly lower”.
